Legend:
[1] = test system: control sera (pooled serum of ten healthy LUMC hospital workers; commercial negative donor pooled serum from the Dutch bloodbank); assay type: binding, human; set-up: Binding of Control serum LUMC to linear peptides / Binding of Control serum Blood-bank to linear peptides / Binding of Control serum LUMC to looped peptides / Binding of Control Serum Blood-Bank to Looped peptides / Binding of Control serum LUMC to linear peptides of the protein M of SARS-CoV Urbani / Binding of Control serum Blood-bank to linear peptides of the protein M of SARS-CoV Urbani / Binding of Control serum LUMC to looped peptides of the protein M of SARS-CoV Urbani / Binding of Control Serum Blood-Bank to Looped peptides of the protein M of SARS-CoV Urbani: unit not given here
[2] = test system: rabbit serum obtained by immunizing a rabbit with the SARS-CoV strain Frankfurt 1; assay type: binding; set-up: Binding of a rabbit serum to linear peptides / Binding of a rabbit serum to looped peptides / Rabbit serum linear peptides / Rabbit serum looped peptides / Binding of a rabbit serum to linear peptides of protein N of SARS-CoV Urbani (Rabbit serum linear peptides) / Binding of a rabbit serum to looped/cyclic peptides of protein N of SARS-CoV Urbani (Rabbit serum looped peptides): unit not given here

PNVTINCQDPAGGAL was tested. Which “Binding of Control Serum Blood-Bank to Looped peptides” value [1] did it give?
The value was 0.4.

What about the “Binding of Control serum Blood-bank to linear peptides” value [1] of the same sequence?
The value was 1.0.

What about the “Binding of Control serum LUMC to linear peptides” value [1] of the same sequence?
The value was 0.7.

What about the “Binding of Control serum LUMC to looped peptides” value [1] of the same sequence?
The value was 0.4.

What about the “Rabbit serum linear peptides” value [2] of the same sequence?
The value was 0.6.

And the “Rabbit serum looped peptides” value [2]?
The value was 0.2.

DYCIPYNSVTDTIVV was tested. Which “Binding of Control Serum Blood-Bank to Looped peptides” value [1] did it give?
The value was 0.7.

And the “Binding of Control serum Blood-bank to linear peptides” value [1]?
The value was 0.7.

What about the “Binding of Control serum LUMC to linear peptides” value [1] of the same sequence?
The value was 0.6.

What about the “Binding of Control serum LUMC to looped peptides” value [1] of the same sequence?
The value was 0.9.

What about the “Binding of a rabbit serum to linear peptides” value [2] of the same sequence?
Its value is 0.1.

And the “Binding of a rabbit serum to looped peptides” value [2]?
The value was 0.5.

How did the “Binding of Control Serum Blood-Bank to Looped peptides” value [1] turn out when VTINCQDPAGGALIA was run?
Its value is 0.5.

And the “Binding of Control serum Blood-bank to linear peptides” value [1]?
Its value is 0.8.

What about the “Binding of Control serum LUMC to linear peptides” value [1] of the same sequence?
Its value is 0.6.

And the “Binding of Control serum LUMC to looped peptides” value [1]?
The value was 0.5.

What about the “Rabbit serum linear peptides” value [2] of the same sequence?
Its value is 0.5.

What about the “Rabbit serum looped peptides” value [2] of the same sequence?
The value was 0.0.

What does the source list for KLVVILRIGTQVLKT?
Binding of Control Serum Blood-Bank to Looped peptides [1]: 0.7; Binding of Control serum Blood-bank to linear peptides [1]: 0.8; Binding of Control serum LUMC to linear peptides [1]: 0.4; Binding of Control serum LUMC to looped peptides [1]: 0.6; Binding of a rabbit serum to linear peptides [2]: 0.5; Binding of a rabbit serum to looped peptides [2]: 0.5

What does the source list for TVLLKEPCPSGTYEG?
Binding of Control Serum Blood-Bank to Looped peptides [1]: 0.7; Binding of Control serum Blood-bank to linear peptides [1]: 0.7; Binding of Control serum LUMC to linear peptides [1]: 0.8; Binding of Control serum LUMC to looped peptides [1]: 0.8; Rabbit serum linear peptides [2]: 0.2; Rabbit serum looped peptides [2]: 0.2

Which results are given for FVCWHTHNYDYCIPY?
Binding of Control Serum Blood-Bank to Looped peptides [1]: 0.5; Binding of Control serum Blood-bank to linear peptides [1]: 0.6; Binding of Control serum LUMC to linear peptides [1]: 0.7; Binding of Control serum LUMC to looped peptides [1]: 0.6; Binding of a rabbit serum to linear peptides [2]: 0.1; Binding of a rabbit serum to looped peptides [2]: 0.7

How did the “Binding of Control Serum Blood-Bank to Looped peptides” value [1] turn out when TTVLLKEPCPSGTYE was run?
Its value is 0.9.

What about the “Binding of Control serum Blood-bank to linear peptides” value [1] of the same sequence?
Its value is 0.9.

What about the “Binding of Control serum LUMC to linear peptides” value [1] of the same sequence?
The value was 0.9.

What about the “Binding of Control serum LUMC to looped peptides” value [1] of the same sequence?
Its value is 1.0.

What about the “Rabbit serum linear peptides” value [2] of the same sequence?
Its value is 0.4.

What about the “Rabbit serum looped peptides” value [2] of the same sequence?
The value was 0.5.

For YSRVKNLNSSEGVPD, which “Binding of Control Serum Blood-Bank to Looped peptides” value [1] is on record?
Its value is 0.4.

What about the “Binding of Control serum Blood-bank to linear peptides” value [1] of the same sequence?
Its value is 0.6.

And the “Binding of Control serum LUMC to linear peptides” value [1]?
The value was 0.8.

What about the “Binding of Control serum LUMC to looped peptides” value [1] of the same sequence?
The value was 0.8.

What about the “Binding of a rabbit serum to linear peptides” value [2] of the same sequence?
The value was 0.3.

What about the “Binding of a rabbit serum to looped peptides” value [2] of the same sequence?
Its value is 0.0.

With DANYFVCWHTHNYDY as the sequence, how does the “Binding of Control Serum Blood-Bank to Looped peptides” value [1] read?
The value was 0.5.

What about the “Binding of Control serum Blood-bank to linear peptides” value [1] of the same sequence?
The value was 0.8.

And the “Binding of Control serum LUMC to linear peptides” value [1]?
Its value is 0.8.

What about the “Binding of Control serum LUMC to looped peptides” value [1] of the same sequence?
The value was 1.0.

What about the “Binding of a rabbit serum to linear peptides” value [2] of the same sequence?
The value was 0.1.

And the “Binding of a rabbit serum to looped peptides” value [2]?
The value was 0.5.

How did the “Binding of Control Serum Blood-Bank to Looped peptides” value [1] turn out when SGVANPAMDPIYDEP was run?
The value was 0.5.

What about the “Binding of Control serum Blood-bank to linear peptides” value [1] of the same sequence?
Its value is 0.4.

And the “Binding of Control serum LUMC to linear peptides” value [1]?
The value was 0.3.

And the “Binding of Control serum LUMC to looped peptides” value [1]?
Its value is 0.5.

And the “Binding of a rabbit serum to linear peptides” value [2]?
The value was 1.1.

And the “Binding of a rabbit serum to looped peptides” value [2]?
The value was 0.6.

Which “Binding of Control Serum Blood-Bank to Looped peptides” value [1] does the source give for IGGYSEDRHSGVKDY here?
The value was 0.7.

And the “Binding of Control serum Blood-bank to linear peptides” value [1]?
The value was 0.4.

And the “Binding of Control serum LUMC to linear peptides” value [1]?
The value was 0.5.

What about the “Binding of Control serum LUMC to looped peptides” value [1] of the same sequence?
The value was 0.6.

What about the “Binding of a rabbit serum to linear peptides” value [2] of the same sequence?
The value was 0.1.

And the “Binding of a rabbit serum to looped peptides” value [2]?
The value was 0.6.

PAMDPIYDEPTTTTS was tested. Which “Binding of Control Serum Blood-Bank to Looped peptides” value [1] did it give?
The value was 0.5.

And the “Binding of Control serum Blood-bank to linear peptides” value [1]?
Its value is 0.4.

What about the “Binding of Control serum LUMC to linear peptides” value [1] of the same sequence?
The value was 0.4.

And the “Binding of Control serum LUMC to looped peptides” value [1]?
The value was 0.4.

And the “Binding of a rabbit serum to linear peptides” value [2]?
Its value is 0.1.

What about the “Binding of a rabbit serum to looped peptides” value [2] of the same sequence?
Its value is 0.4.

For DPIYDEPTTTTSVPL, which “Binding of Control Serum Blood-Bank to Looped peptides” value [1] is on record?
Its value is 0.8.

And the “Binding of Control serum Blood-bank to linear peptides” value [1]?
Its value is 0.5.

And the “Binding of Control serum LUMC to linear peptides” value [1]?
Its value is 0.5.

And the “Binding of Control serum LUMC to looped peptides” value [1]?
Its value is 0.7.

What about the “Binding of a rabbit serum to linear peptides” value [2] of the same sequence?
The value was 0.1.

What about the “Binding of a rabbit serum to looped peptides” value [2] of the same sequence?
Its value is 0.5.

How did the “Binding of Control Serum Blood-Bank to Looped peptides” value [1] turn out when FIFNKLVKDPPNVQI was run?
Its value is 0.8.

What about the “Binding of Control serum Blood-bank to linear peptides” value [1] of the same sequence?
The value was 0.8.

What about the “Binding of Control serum LUMC to linear peptides” value [1] of the same sequence?
The value was 0.8.

And the “Binding of Control serum LUMC to looped peptides” value [1]?
Its value is 0.7.

And the “Binding of a rabbit serum to linear peptides” value [2]?
The value was 0.1.

And the “Binding of a rabbit serum to looped peptides” value [2]?
Its value is 0.7.

Source: patent publication US20070128217A1 (priority 2003, published 2007)
